# Results: patent publication US8192962B2, “Processes for detecting toxic substances” (Daikin Industries, Ltd., priority 2001, dated 2012)
# Tested on: Genes belonging to other category
# Experiment: DNA chip mRNA expression in yeast, genes belonging to other category (Table 9)
# Format: cell-based, Saccharomyces cerevisiae S288C
# Procedure: Yeast (Saccharomyces cerevisiae S288C (α SUC2mal mel gap2 CUP1)) were incubated at 25° C. on YPD medium (yeast extract 1%, polypepton 2%, glucose 2%). One of toxic chemical substances was added to the cells at logarithmic growth phase, and the cells were further incubated for two hours. Cells were cultured without any chemical substance in the same condition, and were used as control. Concentrations of the chemical substances were defined to inhibit the growth of the yeast but not lead to death.
# After completion of the incubation, the culture was centrifuged to collect the cells. To the cells, sodium acetate buffer (50 mM sodium acetate, 10 mM EDTA, 1% SDS) was added, and the mixture was shaken at 65° C. for five minutes, followed by returning to room temperature, and obtaining the supernatant, of which the procedures were repeated two times. To the supernatant, ½ amount of a solution of phenol/chloroform was added, and the mixture was centrifuged to give a supernatant, which was added with an equal amount of chloroform, and the mixture was centrifuged to give a supernatant. To the supernatant, an equal amount of isopropanol containing 0.3 M sodium acetate was added, and the mixture was allowed to stand at room temperature for 30 minutes, after which the mixture was centrifuged to give a sediment of the whole RNAs. Seventy % ethanol was added to the sediment, and the mixture was again centrifuged to give a sediment, which was then dried and dissolved in water. mRNA was isolated from the whole RNAs as followings. In view of the fact that a poly A chain is attached to the 3′ terminus of mRNA, a polynucleotide having a poly T structure which was immobilized on the surface of latex beads was used to trap the mRNA, and then the mRNA was washed and eluted with spine column (Oligotex-dT30<Super>mRNA Purification Kit, Takara). Reverse transcription of the mRNA was conducted with a reverse transcriptase (Super Script II Reverse Transcriptase; catalogue No. 18064-014, GibcoBRL) using fluorescence-labeled nucleotides to give cDNAs that were introduced with Cy3-dUTP or Cy5-dUTP during the reverse transcription.
# The labeled cDNAs were dissolved in TE buffer (10mM Tris-HCl/1 mM EDTA, pH8.0), and the solution was dropped on the DNA chip containing the whole genes of yeast (DNA Chip Research Inc. Japan) so that the cDNAs were hybridized on the DNA chip at 65° C. for over 12 hours. The fluoresces intensity of the DNA chip was read with a scanner, and the ratio relative to the fluorescence intensity resulting from the absence of chemical substance was estimated as the following, which is shown in Tables 1 to 9: […]
structure (smiles),measurement,setting,value
"CCCCCCCCCCCCOS(=O)(=O)[O-].[Na+] [(18), sodium lauryl sulfate]",The level of expressed mRNA in the presence of chemical substance/The level of expressed mRNA in the absence of chemical substance,yeast gene YJL035C,1.0
same,The level of expressed mRNA in the presence of chemical substance/The level of expressed mRNA in the absence of chemical substance,yeast gene YJL073W,1.0
same,The level of expressed mRNA in the presence of chemical substance/The level of expressed mRNA in the absence of chemical substance,yeast gene YJL089W,1.1
same,The level of expressed mRNA in the presence of chemical substance/The level of expressed mRNA in the absence of chemical substance,yeast gene YJL103C,1.2
same,The level of expressed mRNA in the presence of chemical substance/The level of expressed mRNA in the absence of chemical substance,yeast gene YJL116C,0.7
same,The level of expressed mRNA in the presence of chemical substance/The level of expressed mRNA in the absence of chemical substance,yeast gene YJL164C,1.7
same,The level of expressed mRNA in the presence of chemical substance/The level of expressed mRNA in the absence of chemical substance,yeast gene YJL210W,1.0
same,The level of expressed mRNA in the presence of chemical substance/The level of expressed mRNA in the absence of chemical substance,yeast gene YJR004C,0.4
same,The level of expressed mRNA in the presence of chemical substance/The level of expressed mRNA in the absence of chemical substance,yeast gene YJR019C,1.4
same,The level of expressed mRNA in the presence of chemical substance/The level of expressed mRNA in the absence of chemical substance,yeast gene YJR036C,1.2
same,The level of expressed mRNA in the presence of chemical substance/The level of expressed mRNA in the absence of chemical substance,yeast gene YJR047C,0.9
same,The level of expressed mRNA in the presence of chemical substance/The level of expressed mRNA in the absence of chemical substance,yeast gene YJR050W,1.1
same,The level of expressed mRNA in the presence of chemical substance/The level of expressed mRNA in the absence of chemical substance,yeast gene YJR058C,1.2
same,The level of expressed mRNA in the presence of chemical substance/The level of expressed mRNA in the absence of chemical substance,yeast gene YJR086W,1.6
same,The level of expressed mRNA in the presence of chemical substance/The level of expressed mRNA in the absence of chemical substance,yeast gene YJR117W,0.9
same,The level of expressed mRNA in the presence of chemical substance/The level of expressed mRNA in the absence of chemical substance,yeast gene YJR119C,0.9
same,The level of expressed mRNA in the presence of chemical substance/The level of expressed mRNA in the absence of chemical substance,yeast gene YJR123W,0.9
same,The level of expressed mRNA in the presence of chemical substance/The level of expressed mRNA in the absence of chemical substance,yeast gene YJR145C,0.9
same,The level of expressed mRNA in the presence of chemical substance/The level of expressed mRNA in the absence of chemical substance,yeast gene YKL007W,1.3
same,The level of expressed mRNA in the presence of chemical substance/The level of expressed mRNA in the absence of chemical substance,yeast gene YKL008C,1.9
same,The level of expressed mRNA in the presence of chemical substance/The level of expressed mRNA in the absence of chemical substance,yeast gene YKL013C,1.7
same,The level of expressed mRNA in the presence of chemical substance/The level of expressed mRNA in the absence of chemical substance,yeast gene YKL039W,1.3
same,The level of expressed mRNA in the presence of chemical substance/The level of expressed mRNA in the absence of chemical substance,yeast gene YKL041W,1.3
same,The level of expressed mRNA in the presence of chemical substance/The level of expressed mRNA in the absence of chemical substance,yeast gene YKL056C,1.2
same,The level of expressed mRNA in the presence of chemical substance/The level of expressed mRNA in the absence of chemical substance,yeast gene YKL079W,1.2
same,The level of expressed mRNA in the presence of chemical substance/The level of expressed mRNA in the absence of chemical substance,yeast gene YKL096W,0.7
same,The level of expressed mRNA in the presence of chemical substance/The level of expressed mRNA in the absence of chemical substance,yeast gene YKL117W,1.8
same,The level of expressed mRNA in the presence of chemical substance/The level of expressed mRNA in the absence of chemical substance,yeast gene YKL165C,1.0
same,The level of expressed mRNA in the presence of chemical substance/The level of expressed mRNA in the absence of chemical substance,yeast gene YKL171W,1.2
same,The level of expressed mRNA in the presence of chemical substance/The level of expressed mRNA in the absence of chemical substance,yeast gene YKL193C,2.3
same,The level of expressed mRNA in the presence of chemical substance/The level of expressed mRNA in the absence of chemical substance,yeast gene YLR093C,3.2
same,The level of expressed mRNA in the presence of chemical substance/The level of expressed mRNA in the absence of chemical substance,yeast gene YLR120C,2.9
same,The level of expressed mRNA in the presence of chemical substance/The level of expressed mRNA in the absence of chemical substance,yeast gene YLR136C,1.4
same,The level of expressed mRNA in the presence of chemical substance/The level of expressed mRNA in the absence of chemical substance,yeast gene YLR178C,3.6
same,The level of expressed mRNA in the presence of chemical substance/The level of expressed mRNA in the absence of chemical substance,yeast gene YLR206W,1.2
same,The level of expressed mRNA in the presence of chemical substance/The level of expressed mRNA in the absence of chemical substance,yeast gene YLR250W,2.2
same,The level of expressed mRNA in the presence of chemical substance/The level of expressed mRNA in the absence of chemical substance,yeast gene YLR327C,5.3
same,The level of expressed mRNA in the presence of chemical substance/The level of expressed mRNA in the absence of chemical substance,yeast gene YLR356W,1.0
same,The level of expressed mRNA in the presence of chemical substance/The level of expressed mRNA in the absence of chemical substance,yeast gene YLR362W,1.3
same,The level of expressed mRNA in the presence of chemical substance/The level of expressed mRNA in the absence of chemical substance,yeast gene YLR391W,0.9
same,The level of expressed mRNA in the presence of chemical substance/The level of expressed mRNA in the absence of chemical substance,yeast gene YLR429W,0.9
same,The level of expressed mRNA in the presence of chemical substance/The level of expressed mRNA in the absence of chemical substance,yeast gene YML130C,1.2
same,The level of expressed mRNA in the presence of chemical substance/The level of expressed mRNA in the absence of chemical substance,yeast gene YMR004W,1.3
same,The level of expressed mRNA in the presence of chemical substance/The level of expressed mRNA in the absence of chemical substance,yeast gene YMR091C,1.2
same,The level of expressed mRNA in the presence of chemical substance/The level of expressed mRNA in the absence of chemical substance,yeast gene YMR094W,1.0
same,The level of expressed mRNA in the presence of chemical substance/The level of expressed mRNA in the absence of chemical substance,yeast gene YMR104C,1.9
same,The level of expressed mRNA in the presence of chemical substance/The level of expressed mRNA in the absence of chemical substance,yeast gene YMR110C,2.5
same,The level of expressed mRNA in the presence of chemical substance/The level of expressed mRNA in the absence of chemical substance,yeast gene YMR112C,1.6
